Reference: ChEMBL document CHEMBL5500353, “Discovery of novel amide derivatives as potent quorum sensing inhibitors of Pseudomonas aeruginosa” (Eur J Med Chem, 2024)
pKd: −log10 of the molar value. Values belong to the compound of their own block, whether it stands above or below them. Activity calls are given as the source filed them. No cut-off for these calls is given here.

Legend:
[1] = Inhibition of quorum sensing system in Pseudomonas aeruginosa PAO1-lasB-gfp assessed as inhibition of lasB expression at 50 ug/ml incubated for 8 hrs under shaking condition by microplate reader based analysis relative to control; details: dose 50.0 µg/ml
[2] = Inhibition of quorum sensing system in Pseudomonas aeruginosa PAO1-pqsA-gfp assessed as inhibition of pqsA expression at 50 ug/ml incubated for 8 hrs under shaking condition by microplate reader based analysis relative to control; details: dose 50.0 µg/ml
[3] = Inhibition of quorum sensing system in Pseudomonas aeruginosa PAO1-rhlA-gfp assessed as inhibition of rhlA expression at 50 ug/ml incubated for 8 hrs under shaking condition by microplate reader based analysis relative to control; details: dose 50.0 µg/ml
[4] = tested on: Pseudomonas aeruginosa; test: Downregulation of chiC mRNA expression in Pseudomonas aeruginosa PAO1 at 160 ug/ml incubated for 6 hrs by RT-qPCR analysis; format: functional; details: dose 160.0 µg/ml
[5] = tested on: Pseudomonas aeruginosa; test: Antibacterial activity against Pseudomonas aeruginosa PAO1 at 80 to 160 ug/ml incubated for 48 hrs by absorbance based analysis; format: functional, organism-based; details: dose 80-160 µg/ml
[6] = tested on: Pseudomonas aeruginosa; test: Anti-virulence activity in Pseudomonas aeruginosa PAO1 assessed as reduction in elastase production at 160 ug/ml by congo red dye based microplate reader analysis; format: functional, organism-based; details: dose 160.0 µg/ml
[7] = tested on: Pseudomonas aeruginosa; test: Downregulation of lasB mRNA expression in Pseudomonas aeruginosa PAO1 at 160 ug/ml incubated for 6 hrs by RT-qPCR analysis; format: functional; details: dose 160.0 µg/ml
[8] = tested on: Pseudomonas aeruginosa; test: Antibiofilm activity against Pseudomonas aeruginosa PAO1 assessed as reduction in biofilm production at 160 ug/ml incubated for 72 hrs by crystal violet staining based analysis; format: functional, organism-based; details: dose 160.0 µg/ml
[9] = tested on: Pseudomonas aeruginosa; test: Downregulation of lasR mRNA expression in Pseudomonas aeruginosa PAO1 at 160 ug/ml incubated for 6 hrs by RT-qPCR analysis; format: functional; details: dose 160.0 µg/ml
[10] = Cytotoxicity against human HepG2 cells assessed as inhibition of cell growth at 10 ug/ml measured after 48 hrs by CCK-8 method relative to control; format: toxicity, cell-based; details: at 10 µg/mL
[11] = tested on: Pseudomonas aeruginosa; test: Downregulation of lasl-mRNA expression in Pseudomonas aeruginosa PAO1 at 160 ug/ml incubated for 6 hrs by RT-qPCR analysis; format: functional; details: dose 160.0 µg/ml
[12] = tested on: Pseudomonas aeruginosa; test: Downregulation of lasA mRNA expression in Pseudomonas aeruginosa PAO1 at 160 ug/ml incubated for 6 hrs by RT-qPCR analysis; format: functional; details: dose 160.0 µg/ml
[13] = tested on: Pseudomonas aeruginosa; test: Anti-virulence activity in Pseudomonas aeruginosa PAO1 assessed as reduction in pyocyanin production at 160 ug/ml by absorbance based analysis; format: functional, organism-based; details: dose 160.0 µg/ml
[14] = tested on: Pseudomonas aeruginosa; test: Anti-virulence activity in Pseudomonas aeruginosa PAO1 assessed as reduction in pyoverdine production at 160 ug/ml by absorbance based analysis; format: functional, organism-based; details: dose 160.0 µg/ml
[15] = tested on: Pseudomonas aeruginosa; test: Downregulation of rhlR mRNA expression in Pseudomonas aeruginosa PAO1 at 160 ug/ml incubated for 6 hrs by RT-qPCR analysis; format: functional; details: dose 160.0 µg/ml
[16] = tested on: Pseudomonas aeruginosa; test: Downregulation of pqsA mRNA expression in Pseudomonas aeruginosa PAO1 at 160 ug/ml incubated for 6 hrs by RT-qPCR analysis; format: functional; details: dose 160.0 µg/ml
[17] = tested on: Pseudomonas aeruginosa; test: Downregulation of pqsR mRNA expression in Pseudomonas aeruginosa PAO1 at 160 ug/ml incubated for 6 hrs by RT-qPCR analysis; format: functional; details: dose 160.0 µg/ml
[18] = Cytotoxicity against human HepG2 cells assessed as inhibition of cell growth at 100 ug/ml measured after 48 hrs by CCK-8 method relative to control; format: toxicity, cell-based; details: at 100 µg/mL
[19] = tested on: Pseudomonas aeruginosa; test: Downregulation of rhll-mRNA expression in Pseudomonas aeruginosa PAO1 at 160 ug/ml incubated for 6 hrs by RT-qPCR analysis; format: functional; details: dose 160.0 µg/ml
[20] = tested on: Pseudomonas aeruginosa; test: Anti-virulence activity in Pseudomonas aeruginosa PAO1 assessed as reduction in rhamnolipid production at 160 ug/ml incubated for 48 hrs by absorbance based analysis; format: functional, organism-based; details: dose 160.0 µg/ml
[21] = tested on: Pseudomonas aeruginosa; test: Anti-motility activity against Pseudomonas aeruginosa PAO1 assessed as reduction in swarming at 160 ug/ml incubated for 12 hrs; format: functional, organism-based; details: dose 160.0 µg/ml
[22] = tested on: Pseudomonas aeruginosa; test: Antibacterial activity against Pseudomonas aeruginosa infected in Galleria mellonella larvae infection model assessed as increase in survival rate at 160 ug/ml preincubated with measured after 72 hrs; format: functional, organism-based; details: dose 160.0 µg/ml
[23] = tested on: Pseudomonas aeruginosa; test: Downregulation of phzM mRNA expression in Pseudomonas aeruginosa PAO1 at 160 ug/ml incubated for 6 hrs by RT-qPCR analysis; format: functional; details: dose 160.0 µg/ml
[24] = biological target: T1, Transcriptional activator protein LasR (Pseudomonas aeruginosa (strain ATCC 15692 / PAO1 / 1C / PRS 101 / LMG12228), UniProt P25084); test: Binding affinity to Pseudomonas aeruginosa PAO1 LasR assessed as dissociation constant by SPR analysis
T1 sequence (P25084 whole entry): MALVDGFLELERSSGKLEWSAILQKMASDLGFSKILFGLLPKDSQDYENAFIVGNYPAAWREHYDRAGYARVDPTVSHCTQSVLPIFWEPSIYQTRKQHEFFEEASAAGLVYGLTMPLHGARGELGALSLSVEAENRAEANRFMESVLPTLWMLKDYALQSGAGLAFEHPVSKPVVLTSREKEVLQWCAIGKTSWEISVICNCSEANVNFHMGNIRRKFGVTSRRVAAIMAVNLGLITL

[25] = biological target: T2, Transcriptional regulator MvfR (Pseudomonas aeruginosa PA14, UniProt A0A072ZLE6); test: Binding affinity to Pseudomonas aeruginosa PAO1 PqsR expressed in Escherichia coli BL21 assessed as dissociation constant by SPR analysis
T2 sequence (A0A072ZLE6 whole entry): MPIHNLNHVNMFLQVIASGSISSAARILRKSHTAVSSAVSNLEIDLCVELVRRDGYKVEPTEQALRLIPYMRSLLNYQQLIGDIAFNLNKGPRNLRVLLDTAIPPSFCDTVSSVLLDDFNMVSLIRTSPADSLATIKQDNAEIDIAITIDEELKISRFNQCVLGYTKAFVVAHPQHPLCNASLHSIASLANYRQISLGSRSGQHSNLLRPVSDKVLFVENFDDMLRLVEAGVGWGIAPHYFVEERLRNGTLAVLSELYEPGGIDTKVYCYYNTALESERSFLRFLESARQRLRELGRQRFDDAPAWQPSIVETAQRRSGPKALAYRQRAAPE

[26] = tested on: Pseudomonas aeruginosa; test: Antibacterial activity against Pseudomonas aeruginosa PAO1 at 80 ug/ml incubated for 48 hrs by absorbance based analysis; format: functional, organism-based; details: dose 80.0 µg/ml

- inhibition [1]: 72.2%
- inhibition [2]: 26%
- inhibition [3]: 76.9%
Compound: C=C(C)CNC(=O)CCCC

- inhibition [1]: 70%
- inhibition [2]: 13.6%
- inhibition [3]: 72.4%
Compound: CCCCCC(=O)NCC(C)C

- inhibition [1]: 64.1%
- inhibition [2]: 26.5%
- inhibition [3]: 80.5%
Compound: CCC/C=C/C(=O)NCC(C)C
- Activity [4]: Active

- inhibition [1]: 1.11%
- inhibition [3]: 13.8%
Compound: CC(=O)NCC(C)(C)O

- inhibition [1]: 32.4%
- inhibition [3]: 54.9%
Compound: CCCCCC(=O)NCC(C)(C)O

- inhibition [1]: 7.26%
- inhibition [3]: 28.3%
Compound: CCC(=O)NCC(C)(C)O

- inhibition [1]: 54.6%
- inhibition [2]: 27.8%
- inhibition [3]: 71%
Compound: CCC(=O)NCC(C)C

- inhibition [1]: 77.2%
- inhibition [2]: 30.2%
- inhibition [3]: 65.8%
Compound: CCCCC(=O)NCC(C)C

- inhibition [1]: 13.1%
- inhibition [3]: 18.1%
Compound: CCCCCCC(=O)NCC(C)(C)O

- inhibition [1]: 55.1%
- inhibition [2]: 12.6%
- inhibition [3]: 68.6%
Compound: C=CC(=O)NCC(C)C

- inhibition [1]: 26.3%
- inhibition [3]: 32.4%
Compound: C/C=C/C=C/C(=O)NCC(C)(C)O

- inhibition [1]: 72.7%
- inhibition [2]: 36.1%
- inhibition [3]: 79.7%
Compound: C=C(C)CNC(=O)CCCCC

- inhibition [1]: 37.4%
- inhibition [2]: -6.15%
- inhibition [3]: 43.1%
Compound: CCCC(=O)NCC(C)(C)O

- inhibition [1]: 53.1%
- inhibition [2]: -8.67%
- inhibition [3]: 58.1%
Compound: CC/C=C/C(=O)NCC(C)(C)O

- inhibition [1]: 29.9%
- inhibition [3]: 41.9%
Compound: C/C=C/C(=O)NCC(C)(C)O

- inhibition [1]: 61.6%
- inhibition [2]: 42.5%
- inhibition [3]: 68.4%
Compound: C=C(C)CNC(=O)CCCCCC

- inhibition [1]: 10.5%
- inhibition [2]: 59.1%
- inhibition [3]: 10.2%
Compound: C=C(C)CNC(C)=O

- inhibition [1]: 67.5%
- inhibition [2]: 38%
- inhibition [3]: 80%
Compound: C=C(C)CNC(=O)/C=C/C

Compound: C=C(C)CNC(=O)/C=C/CCC
- Activity [5]: inactive
- Activity [6]: Active
- inhibition [1]: 77.1%
- Activity [7]: Active
- inhibition [2]: 40%
- Activity [8]: Active
- Activity [9]: inactive
- inhibition at 48 h, 10 ug/ml [10]: 9.91%
- Activity [11]: Active
- Activity [12]: Active
- Activity [13]: Active
- Activity [14]: Active
- Activity [15]: Active
- Activity [16]: Active
- inhibition [3]: 85%
- Activity [17]: inactive
- inhibition at 48 h, 100 ug/ml [18]: 18.9%
- Activity [19]: Active
- Activity [20]: Active
- Activity [21]: Active
- Activity [4]: Active
- Activity [22]: Active
- Activity [23]: Active

- inhibition [1]: 34.5%
- inhibition [3]: 50.1%
Compound: CCC/C=C/C(=O)NCC(C)(C)O

- inhibition [1]: 6.82%
- inhibition [2]: 0.28%
- inhibition [3]: 29.7%
Compound: C=CC(=O)NCC(C)(C)O

- inhibition [1]: 71.5%
- inhibition [2]: 26.2%
- inhibition [3]: 72.7%
Compound: CC/C=C/C(=O)NCC(C)C

- inhibition [1]: 61.5%
- inhibition [2]: 38.1%
- inhibition [3]: 64.5%
Compound: C=C(C)CNC(=O)CCC

- inhibition [1]: 63.7%
- inhibition [2]: 27.8%
- inhibition [3]: 72.3%
Compound: C/C=C/C(=O)NCC(C)C

- inhibition [1]: 38.9%
- inhibition [2]: 11.8%
- inhibition [3]: 56.8%
Compound: C=C(C)CNC(=O)/C=C/C=C/C

- inhibition [1]: 2.28%
- inhibition [2]: 5.99%
- inhibition [3]: 8.21%
Compound: CCCCCCC(=O)NCC(C)C

- inhibition [1]: 54.7%
- inhibition [2]: 2.45%
- inhibition [3]: 63.9%
Compound: C=CC(=O)NCC(=C)C

- inhibition [1]: 13.8%
- inhibition [2]: 11%
- inhibition [3]: 18.9%
Compound: CC(=O)NCC(C)C

Compound: C/C=C/C=C/C(=O)NCC(C)C
- pKd [24]: 2.91
- Activity [5]: inactive
- Activity [6]: Active
- inhibition [1]: 82.2%
- Activity [7]: Active
- inhibition [2]: 65.5%
- Activity [8]: Active
- Activity [9]: inactive
- inhibition at 48 h, 10 ug/ml [10]: -2.16%
- pKd [25]: 5.08
- Activity [11]: Active
- Activity [12]: Active
- Activity [13]: Active
- Activity [14]: Active
- Activity [15]: Active
- Activity [16]: Active
- inhibition [3]: 84.1%
- Activity [17]: inactive
- inhibition at 48 h, 100 ug/ml [18]: 30.1%
- Activity [19]: Active
- Activity [20]: Active
- Activity [21]: Active
- Activity [22]: Active
- Activity [23]: Active

- inhibition [1]: 65.7%
- inhibition [2]: 29.8%
- inhibition [3]: 65.4%
Compound: CCCC(=O)NCC(C)C

Compound: C=CCSSCC=C [DIALLYLDISULFIDE]
- inhibition [1]: 36.1%
- inhibition [2]: 34.6%
- inhibition [3]: 38%
- inhibition at 48 h, 100 ug/ml [18]: 18.1%
- Activity [26]: inactive

- inhibition [1]: 40%
- inhibition [2]: 1.47%
- inhibition [3]: 55.8%
Compound: CCCCC(=O)NCC(C)(C)O
